Assay [1] in a line: Cytotoxicity against human SW1116 cells assessed as cell proliferation inhibition rate at 0.1 ug/ml after 24 hrs by MTT assay. The class given is functional. The conditions noted are these: SW 1116, 24 h. (In general: Formazan colour is commonly taken as a measure of viable cells.)
The nature of assay [2]: Cytotoxicity against human SW1116 cells assessed as cell proliferation inhibition rate at 1 ug/ml after 24 hrs by MTT assay. The assay is classed as functional. Particulars: SW 1116, 24 h.
Assay [3] can be described thus: Cytotoxicity against human SW1116 cells assessed as cell proliferation inhibition rate at 10 ug/ml after 24 hrs by MTT assay. The assay is classed as functional. Particulars: SW 1116, 24 h.
A further assay concerns SGC-7901. Put plainly: Cytotoxicity against human SGC7901 cells assessed as cell mortality after 20 hrs by MTT assay. The class given is functional, cell-based. The conditions noted are these: SGC-7901, 20 h.

≈ marks a conversion by molar mass, not a printed value.

In the case of `Nc1nc2c(c(=O)[nH]1)C(c1ccc(F)cc1)C(c1ccccc1)=C(c1ccccc1)N2` (stereo unspecified), the inhibition at 0.1 µg/mL in assay [1] was 31.6%. The inhibition at 1 µg/mL in assay [2] was 17.6%. The inhibition at 10 µg/mL in assay [3] stood at 50.3%. Also, the IC50 in the assay on SGC-7901 came to 13 µg/mL (≈ 31.8 µM).
On the same counts, the results for `Nc1nc2c(c(=O)[nH]1)C(c1ccc(Br)cc1)C(c1ccccc1)=C(c1ccccc1)N2` (stereo unspecified) are 19.8%, 19.3%, 12% and 0.074 µg/mL (≈ 0.157 µM).
On the same counts, the results for `Nc1nc2c(c(=O)[nH]1)C(c1ccc(Cl)cc1)C(c1ccccc1)=C(c1ccccc1)N2` (stereo unspecified) are 14.9%, 25.1%, 25.5% and 0.104 µg/mL (≈ 0.244 µM).
On the same counts, the results for `COc1ccc(C2C(c3ccccc3)=C(c3ccccc3)Nc3nc(N)[nH]c(=O)c32)cc1` (stereo unspecified) are 43%, 29.1%, 42.8% and 0.341 µg/mL (≈ 0.807 µM).
Take `CN(C)c1ccc(C2C(c3ccccc3)=C(c3ccccc3)Nc3nc(N)[nH]c(=O)c32)cc1` (stereo unspecified): the inhibition at 0.1 µg/mL in assay [1] was 20.5%. Further, the inhibition at 1 µg/mL in assay [2] is 27.9%. Moreover, in assay [3], the inhibition at 10 µg/mL came to 14%. Also, the half-maximal inhibitory concentration (IC50) in the assay with SGC-7901 amounted to 0.79 µg/mL (≈ 1.81 µM).
For the compound `Nc1nc2c(c(=O)[nH]1)C(c1ccc3c(c1)OCO3)C(c1ccccc1)=C(c1ccccc1)N2` (stereo unspecified), in assay [1], the inhibition at 0.1 µg/mL is 15.1%. Further, the inhibition at 1 µg/mL in assay [2] was 34.6%. Moreover, the inhibition at 10 µg/mL in assay [3] was determined as 20.6%. The IC50 in the assay on SGC-7901 turned out to be 0.09 µg/mL (≈ 0.206 µM).
For `Nc1nc2c(c(=O)[nH]1)C(c1cccs1)C(c1ccccc1)=C(c1ccccc1)N2` (stereo unspecified), the inhibition at 0.1 µg/mL in assay [1] is 22.4%. The inhibition at 1 µg/mL in assay [2] came to 37.2%. The inhibition at 10 µg/mL in assay [3] amounted to 48.3%. Moreover, the IC50 with SGC-7901 amounted to 0.108 µg/mL (≈ 0.271 µM).
On the same counts, the results for `COc1ccccc1[C@@H]1c2c(nc(N)[nH]c2=O)N=C(c2ccccc2)[C@H]1c1ccccc1` (racemic) are 22.4%, 6.47%, 31.6% and 0.359 µg/mL (≈ 0.85 µM).
On the same counts, the results for `COc1ccc([C@@H]2c3c(nc(N)[nH]c3=O)N=C(c3ccccc3)[C@H]2c2ccccc2)cc1OC` (racemic) are 2.24%, 13.8%, 23.9% and 0.606 µg/mL (≈ 1.34 µM).
On the same counts, the results for `COc1cc([C@@H]2c3c(nc(N)[nH]c3=O)N=C(c3ccccc3)[C@H]2c2ccccc2)cc(OC)c1OC` (racemic) are 21.8%, 16.7%, 36.9% and 2.98 µg/mL (≈ 6.17 µM).
`Nc1nc2c(c(=O)[nH]1)[C@@H](c1ccccc1Cl)[C@H](c1ccccc1)C(c1ccccc1)=N2` (racemic): in assay [1], the inhibition at 0.1 µg/mL was 31.8%. The inhibition at 1 µg/mL in assay [2] is 27.3%. Further, the inhibition at 10 µg/mL in assay [3] turned out to be 38.7%. The IC50 with SGC-7901 was 1.56 µg/mL (≈ 3.67 µM).
`COc1cccc2c1C(=O)c1c(O)c3c(c(O)c1C2=O)C[C@@](O)(C(=O)CO)C[C@@H]3O[C@H]1C[C@H](N)[C@H](O)[C@H](C)O1.Cl` [DOXORUBICIN HYDROCHLORIDE]: the inhibition at 10 µg/mL in assay [3] is 28.5%. Further, in the assay with SGC-7901, the IC50 was 0.078 µg/mL.

In general, inhibition refers to the percentage by which the read-out fell short of the control. In general, IC50 refers to the midpoint of a concentration-inhibition curve.
